Experiments:
Assay in all cases: KINOMEscan competition binding
Settings in all cases: compound 10.0 µM
AKT2 (human) = AKT2 (human) (UniProt P31751)
AKT3 (human) = AKT3 (human) (UniProt Q9Y243)
AURKC (human) = AURKC (human) (UniProt Q9UQB9)
BRSK1 (human) = BRSK1 (human) (UniProt Q8TDC3)
CAMK2A (human) = CAMK2A (human) (UniProt Q9UQM7)
CAMK2B (human) = CAMK2B (human) (UniProt Q13554)
CAMK2D (human) = CAMK2D (human) (UniProt Q13557)
CDC2L2 (human) = CDC2L2 (human) (UniProt Q9UQ88)
CDK8 (human) = CDK8 (human) (UniProt P49336)
CDK9 (human) = CDK9 (human) (UniProt P50750)
CLK1 (human) = CLK1 (human) (UniProt P49759)
CLK1 (human), sequence (P49759 whole entry, looked up): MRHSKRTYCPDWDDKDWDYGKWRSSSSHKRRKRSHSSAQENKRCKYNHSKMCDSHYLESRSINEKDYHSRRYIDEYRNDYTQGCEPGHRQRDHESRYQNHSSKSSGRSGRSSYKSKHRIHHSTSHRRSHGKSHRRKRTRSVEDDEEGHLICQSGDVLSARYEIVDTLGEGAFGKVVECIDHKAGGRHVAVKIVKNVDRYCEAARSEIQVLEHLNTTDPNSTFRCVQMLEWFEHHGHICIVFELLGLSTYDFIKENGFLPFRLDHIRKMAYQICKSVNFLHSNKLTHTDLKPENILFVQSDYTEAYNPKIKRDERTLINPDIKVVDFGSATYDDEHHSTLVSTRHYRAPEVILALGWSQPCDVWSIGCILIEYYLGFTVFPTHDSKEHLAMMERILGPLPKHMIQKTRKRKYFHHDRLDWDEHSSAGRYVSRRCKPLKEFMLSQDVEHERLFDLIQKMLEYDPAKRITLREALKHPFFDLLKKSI

CSNK1G2 (human) = CSNK1G2 (human) (UniProt P78368)
CSNK1G3 (human) = CSNK1G3 (human) (UniProt Q9Y6M4)
CSNK2A1 (human) = CSNK2A1 (human) (UniProt P68400)
CSNK2A2 (human) = CSNK2A2 (human) (UniProt P19784)
ERBB2 (human) = ERBB2 (human) (UniProt P04626)
FGR (human) = FGR (human) (UniProt P09769)
FLT4 (human) = FLT4 (human) (UniProt P35916)
LATS1 (human) = LATS1 (human) (UniProt O95835)
LATS1 (human), sequence (O95835 whole entry, looked up): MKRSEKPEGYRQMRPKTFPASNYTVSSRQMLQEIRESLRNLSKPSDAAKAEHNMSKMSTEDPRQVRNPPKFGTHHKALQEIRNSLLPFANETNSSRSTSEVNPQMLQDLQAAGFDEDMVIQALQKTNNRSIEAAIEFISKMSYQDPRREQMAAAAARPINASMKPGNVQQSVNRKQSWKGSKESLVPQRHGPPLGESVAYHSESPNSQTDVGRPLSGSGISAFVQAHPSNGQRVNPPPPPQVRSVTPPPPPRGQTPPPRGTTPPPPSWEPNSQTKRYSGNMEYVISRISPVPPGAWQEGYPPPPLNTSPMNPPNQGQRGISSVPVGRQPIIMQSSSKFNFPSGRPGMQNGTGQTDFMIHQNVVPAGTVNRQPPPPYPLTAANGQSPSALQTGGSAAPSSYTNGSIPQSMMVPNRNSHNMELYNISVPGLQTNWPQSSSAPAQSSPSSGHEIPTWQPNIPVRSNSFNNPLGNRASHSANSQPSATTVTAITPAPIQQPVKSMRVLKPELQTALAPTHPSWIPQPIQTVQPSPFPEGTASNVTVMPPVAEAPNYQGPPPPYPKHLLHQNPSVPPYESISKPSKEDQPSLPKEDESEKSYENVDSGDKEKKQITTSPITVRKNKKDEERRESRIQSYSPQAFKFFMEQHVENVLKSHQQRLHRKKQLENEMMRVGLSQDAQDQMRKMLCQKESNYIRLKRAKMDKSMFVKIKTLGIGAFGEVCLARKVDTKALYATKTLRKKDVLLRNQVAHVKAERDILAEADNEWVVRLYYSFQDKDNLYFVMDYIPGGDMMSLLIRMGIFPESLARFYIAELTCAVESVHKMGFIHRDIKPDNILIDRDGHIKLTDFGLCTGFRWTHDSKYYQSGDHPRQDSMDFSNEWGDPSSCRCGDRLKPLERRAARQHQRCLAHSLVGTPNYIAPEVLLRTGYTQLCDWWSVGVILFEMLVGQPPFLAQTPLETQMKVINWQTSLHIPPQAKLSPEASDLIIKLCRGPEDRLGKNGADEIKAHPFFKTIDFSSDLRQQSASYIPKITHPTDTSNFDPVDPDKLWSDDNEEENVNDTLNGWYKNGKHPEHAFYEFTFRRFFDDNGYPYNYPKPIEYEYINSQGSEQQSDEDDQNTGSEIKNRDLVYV

LIMK2 (human) = LIMK2 (human) (UniProt P53671)
LIMK2 (human), sequence (P53671 whole entry, looked up): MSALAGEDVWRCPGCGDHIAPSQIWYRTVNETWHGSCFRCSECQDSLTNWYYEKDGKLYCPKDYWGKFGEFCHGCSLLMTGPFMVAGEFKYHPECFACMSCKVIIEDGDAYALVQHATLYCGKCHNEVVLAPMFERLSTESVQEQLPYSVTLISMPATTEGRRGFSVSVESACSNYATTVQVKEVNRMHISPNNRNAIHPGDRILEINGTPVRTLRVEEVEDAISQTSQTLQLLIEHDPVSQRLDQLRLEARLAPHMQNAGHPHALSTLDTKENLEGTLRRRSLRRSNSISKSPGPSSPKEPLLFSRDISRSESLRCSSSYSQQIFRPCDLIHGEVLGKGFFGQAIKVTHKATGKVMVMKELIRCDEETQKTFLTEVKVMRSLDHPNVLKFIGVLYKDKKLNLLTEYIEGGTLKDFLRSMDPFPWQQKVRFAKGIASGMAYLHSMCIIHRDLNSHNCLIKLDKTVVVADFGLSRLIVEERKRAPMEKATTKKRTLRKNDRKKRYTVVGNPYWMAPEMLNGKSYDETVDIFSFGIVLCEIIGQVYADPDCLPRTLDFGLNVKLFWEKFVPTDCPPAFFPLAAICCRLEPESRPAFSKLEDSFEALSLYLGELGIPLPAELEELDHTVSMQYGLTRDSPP

MAP4K4 (human) = MAP4K4 (human) (UniProt O95819)
MAPK6 (human) = MAPK6 (human) (UniProt Q16659)
MELK (human) = MELK (human) (UniProt Q14680)
MKNK1 (human) = MKNK1 (human) (UniProt Q9BUB5)
MST4 (human) = MST4 (human) (UniProt Q9P289)
MST4 (human), sequence (Q9P289 whole entry, looked up): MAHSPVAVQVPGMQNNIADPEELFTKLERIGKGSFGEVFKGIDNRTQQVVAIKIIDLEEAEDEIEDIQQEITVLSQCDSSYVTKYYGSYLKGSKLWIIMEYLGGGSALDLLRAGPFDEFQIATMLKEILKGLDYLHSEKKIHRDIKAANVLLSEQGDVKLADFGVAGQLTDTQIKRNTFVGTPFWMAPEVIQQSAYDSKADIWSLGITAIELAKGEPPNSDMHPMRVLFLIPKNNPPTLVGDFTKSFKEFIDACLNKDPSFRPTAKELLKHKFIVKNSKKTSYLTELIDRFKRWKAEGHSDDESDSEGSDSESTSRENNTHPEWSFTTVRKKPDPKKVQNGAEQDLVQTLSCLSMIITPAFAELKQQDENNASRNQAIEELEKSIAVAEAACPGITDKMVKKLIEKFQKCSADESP

MYLK (human) = MYLK (human) (UniProt Q15746)
NLK (human) = NLK (human) (UniProt Q9UBE8)
NUAK2 (human) = NUAK2 (human) (UniProt Q9H093)
PAK1 (human) = PAK1 (human) (UniProt Q13153)
PRKAA1 (human) = PRKAA1 (human) (UniProt Q13131)
PRKCH (human) = PRKCH (human) (UniProt P24723)
PRKCQ (human) = PRKCQ (human) (UniProt Q04759)
PRKD1 (human) = PRKD1 (human) (UniProt Q15139)
RIOK1 (human) = RIOK1 (human) (UniProt Q9BRS2)
RIPK1 (human) = RIPK1 (human) (UniProt Q13546)
RIPK1 (human), sequence (Q13546 whole entry, looked up): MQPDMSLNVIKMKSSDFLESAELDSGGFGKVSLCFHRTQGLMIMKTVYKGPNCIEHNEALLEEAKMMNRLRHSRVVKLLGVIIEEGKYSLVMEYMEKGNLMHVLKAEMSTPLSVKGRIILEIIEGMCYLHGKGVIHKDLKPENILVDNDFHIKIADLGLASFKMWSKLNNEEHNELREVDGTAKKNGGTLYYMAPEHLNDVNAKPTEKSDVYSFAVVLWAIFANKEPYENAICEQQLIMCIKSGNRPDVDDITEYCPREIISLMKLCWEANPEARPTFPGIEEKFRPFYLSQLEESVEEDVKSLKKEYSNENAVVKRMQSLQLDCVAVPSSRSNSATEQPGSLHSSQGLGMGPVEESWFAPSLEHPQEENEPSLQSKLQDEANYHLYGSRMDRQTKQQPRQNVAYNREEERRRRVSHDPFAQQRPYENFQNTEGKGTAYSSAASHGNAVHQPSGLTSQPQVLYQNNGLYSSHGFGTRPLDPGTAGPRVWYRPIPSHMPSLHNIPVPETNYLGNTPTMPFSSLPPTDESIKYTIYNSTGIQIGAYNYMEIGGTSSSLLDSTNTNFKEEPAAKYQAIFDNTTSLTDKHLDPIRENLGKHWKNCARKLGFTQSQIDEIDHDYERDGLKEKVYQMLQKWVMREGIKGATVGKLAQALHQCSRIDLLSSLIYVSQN

RPS6KA4 KD2 (human) = RPS6KA4 KD2 (human) (UniProt O75676)
SIK2 (human) = SIK2 (human) (UniProt Q9H0K1)
SRPK1 (human) = SRPK1 (human) (UniProt Q96SB4)
STK35 (human) = STK35 (human) (UniProt Q8TDR2)
TNIK (human) = TNIK (human) (UniProt Q9UKE5)
TNIK (human), sequence (Q9UKE5 whole entry, looked up): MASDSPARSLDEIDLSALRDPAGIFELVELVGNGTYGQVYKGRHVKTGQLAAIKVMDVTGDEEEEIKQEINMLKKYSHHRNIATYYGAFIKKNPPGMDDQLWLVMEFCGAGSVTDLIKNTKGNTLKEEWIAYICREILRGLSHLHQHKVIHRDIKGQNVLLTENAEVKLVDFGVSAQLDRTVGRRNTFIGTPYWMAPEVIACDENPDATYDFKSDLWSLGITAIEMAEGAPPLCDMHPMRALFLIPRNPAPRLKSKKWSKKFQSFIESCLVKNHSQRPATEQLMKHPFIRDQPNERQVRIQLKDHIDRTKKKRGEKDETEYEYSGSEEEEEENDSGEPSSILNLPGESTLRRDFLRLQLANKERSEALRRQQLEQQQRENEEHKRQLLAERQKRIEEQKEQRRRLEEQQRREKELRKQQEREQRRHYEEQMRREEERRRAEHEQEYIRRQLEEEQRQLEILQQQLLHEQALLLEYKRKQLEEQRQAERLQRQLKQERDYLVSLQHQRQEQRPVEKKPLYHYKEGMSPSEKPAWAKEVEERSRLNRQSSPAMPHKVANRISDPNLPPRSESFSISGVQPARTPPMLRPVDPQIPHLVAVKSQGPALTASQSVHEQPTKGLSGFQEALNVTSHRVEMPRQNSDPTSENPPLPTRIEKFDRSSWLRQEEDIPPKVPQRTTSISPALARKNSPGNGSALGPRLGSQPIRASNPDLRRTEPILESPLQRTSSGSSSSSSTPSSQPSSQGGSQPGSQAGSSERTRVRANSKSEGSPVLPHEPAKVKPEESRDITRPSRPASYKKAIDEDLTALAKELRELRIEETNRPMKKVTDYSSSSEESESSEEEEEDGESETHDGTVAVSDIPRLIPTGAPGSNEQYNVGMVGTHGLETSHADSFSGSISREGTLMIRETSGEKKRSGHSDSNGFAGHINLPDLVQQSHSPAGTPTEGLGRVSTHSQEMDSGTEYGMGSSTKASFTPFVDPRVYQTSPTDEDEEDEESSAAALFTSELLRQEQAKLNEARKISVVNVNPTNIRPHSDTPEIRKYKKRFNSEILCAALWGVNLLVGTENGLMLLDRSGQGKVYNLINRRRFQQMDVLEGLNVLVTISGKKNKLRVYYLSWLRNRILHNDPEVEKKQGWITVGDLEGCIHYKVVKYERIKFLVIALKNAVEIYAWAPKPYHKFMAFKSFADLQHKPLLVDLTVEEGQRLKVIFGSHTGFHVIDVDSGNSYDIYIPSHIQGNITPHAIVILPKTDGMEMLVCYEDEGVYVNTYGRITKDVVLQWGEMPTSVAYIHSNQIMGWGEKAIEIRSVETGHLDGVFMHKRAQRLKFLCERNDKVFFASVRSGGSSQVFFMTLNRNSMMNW

AURKC (human), sequence (Q9UQB9 whole entry, looked up): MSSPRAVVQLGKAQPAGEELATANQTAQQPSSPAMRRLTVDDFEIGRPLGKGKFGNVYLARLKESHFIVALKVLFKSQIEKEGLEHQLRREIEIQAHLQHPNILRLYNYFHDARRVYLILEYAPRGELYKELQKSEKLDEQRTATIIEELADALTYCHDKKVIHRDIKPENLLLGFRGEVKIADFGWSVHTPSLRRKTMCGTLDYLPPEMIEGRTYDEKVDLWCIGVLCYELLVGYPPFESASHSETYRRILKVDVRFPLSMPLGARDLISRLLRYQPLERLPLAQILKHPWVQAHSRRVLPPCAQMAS

Row | Compound | kinase still bound, per cent of control (AKT2 (human)) [%] | kinase still bound, per cent of control (AKT3 (human)) [%] | kinase still bound, per cent of control (AURKC (human)) [%] | kinase still bound, per cent of control (BRSK1 (human)) [%] | kinase still bound, per cent of control (CAMK2A (human)) [%] | kinase still bound, per cent of control (CAMK2B (human)) [%] | kinase still bound, per cent of control (CAMK2D (human)) [%] | kinase still bound, per cent of control (CDC2L2 (human)) [%] | kinase still bound, per cent of control (CDK8 (human)) [%] | kinase still bound, per cent of control (CDK9 (human)) [%] | kinase still bound, per cent of control (CLK1 (human)) [%] | kinase still bound, per cent of control (CSNK1G2 (human)) [%] | kinase still bound, per cent of control (CSNK1G3 (human)) [%] | kinase still bound, per cent of control (CSNK2A1 (human)) [%] | kinase still bound, per cent of control (CSNK2A2 (human)) [%] | kinase still bound, per cent of control (ERBB2 (human)) [%] | kinase still bound, per cent of control (FGR (human)) [%] | kinase still bound, per cent of control (FLT4 (human)) [%] | kinase still bound, per cent of control (LATS1 (human)) [%] | kinase still bound, per cent of control (LIMK2 (human)) [%] | other results
1 | Cc1ccc2nc(NCCN)c3ncc(C)n3c2c1 | 100 | 100 | 100 | 90 | 78 | 73 | 100 | 1 | 100 | 35 | 72 | 97 | 100 | 33 | 86 | 100 | 100 | 100 | 100 | 100 | kinase still bound, per cent of control (MAP4K4 (human)): 100%; kinase still bound, per cent of control (MAPK6 (human)): 27%; kinase still bound, per cent of control (MELK (human)): 96%; kinase still bound, per cent of control (MKNK1 (human)): 100%; kinase still bound, per cent of control (MST4 (human)): 95%; kinase still bound, per cent of control (MYLK (human)): 79%; kinase still bound, per cent of control (NLK (human)): 100%; kinase still bound, per cent of control (NUAK2 (human)): 100%; kinase still bound, per cent of control (PAK1 (human)): 100%; kinase still bound, per cent of control (PRKAA1 (human)): 82%; kinase still bound, per cent of control (PRKCH (human)): 94%; kinase still bound, per cent of control (PRKCQ (human)): 99%; kinase still bound, per cent of control (PRKD1 (human)): 47%; kinase still bound, per cent of control (RIOK1 (human)): 100%; kinase still bound, per cent of control (RIPK1 (human)): 100%; kinase still bound, per cent of control (RPS6KA4 KD2 (human)): 15%; kinase still bound, per cent of control (SIK2 (human)): 82%; kinase still bound, per cent of control (SRPK1 (human)): 100%; kinase still bound, per cent of control (STK35 (human)): 90%; kinase still bound, per cent of control (TNIK (human)): 100%
2 | O=C1Nc2ccc(I)cc2/C1=C/c1cc(Br)c(O)c(Br)c1 | 90 | 100 | 71 | 85 | 20 | 17 | 41 | 73 | 62 | 93 | 34 | 100 | 94 | 4.2 | 3.2 | 94 | 86 | 100 | 44 | 77 | kinase still bound, per cent of control (MAP4K4 (human)): 4.2%; kinase still bound, per cent of control (MAPK6 (human)): 100%; kinase still bound, per cent of control (MELK (human)): 99%; kinase still bound, per cent of control (MKNK1 (human)): 83%; kinase still bound, per cent of control (MST4 (human)): 100%; kinase still bound, per cent of control (MYLK (human)): 16%; kinase still bound, per cent of control (NLK (human)): 56%; kinase still bound, per cent of control (NUAK2 (human)): 75%; kinase still bound, per cent of control (PAK1 (human)): 100%; kinase still bound, per cent of control (PRKAA1 (human)): 100%; kinase still bound, per cent of control (PRKCH (human)): 100%; kinase still bound, per cent of control (PRKCQ (human)): 90%; kinase still bound, per cent of control (PRKD1 (human)): 100%; kinase still bound, per cent of control (RIOK1 (human)): 14%; kinase still bound, per cent of control (RIPK1 (human)): 85%; kinase still bound, per cent of control (RPS6KA4 KD2 (human)): 47%; kinase still bound, per cent of control (SIK2 (human)): 84%; kinase still bound, per cent of control (SRPK1 (human)): 40%; kinase still bound, per cent of control (STK35 (human)): 100%; kinase still bound, per cent of control (TNIK (human)): 2.7%
3 | CN(C)C/C=C/C(=O)Nc1cccc(Nc2ncc3c(n2)N(C)c2ccccc2C(=O)N3C)c1 | 99 | 100 | 9.2 | 14 | 32 | 40 | 62 | 100 | 100 | 100 | 50 | 69 | 39 | 100 | 87 | 65 | 4.2 | 100 | 100 | 94 | kinase still bound, per cent of control (MAP4K4 (human)): 50%; kinase still bound, per cent of control (MAPK6 (human)): 46%; kinase still bound, per cent of control (MELK (human)): 43%; kinase still bound, per cent of control (MKNK1 (human)): 38%; kinase still bound, per cent of control (MST4 (human)): 31%; kinase still bound, per cent of control (MYLK (human)): 69%; kinase still bound, per cent of control (NLK (human)): 36%; kinase still bound, per cent of control (NUAK2 (human)): 2.6%; kinase still bound, per cent of control (PAK1 (human)): 91%; kinase still bound, per cent of control (PRKAA1 (human)): 0.45%; kinase still bound, per cent of control (PRKCH (human)): 100%; kinase still bound, per cent of control (PRKCQ (human)): 83%; kinase still bound, per cent of control (PRKD1 (human)): 15%; kinase still bound, per cent of control (RIOK1 (human)): 18%; kinase still bound, per cent of control (RIPK1 (human)): 28%; kinase still bound, per cent of control (RPS6KA4 KD2 (human)): 70%; kinase still bound, per cent of control (SIK2 (human)): 9%; kinase still bound, per cent of control (SRPK1 (human)): 23%; kinase still bound, per cent of control (STK35 (human)): 89%; kinase still bound, per cent of control (TNIK (human)): 29%
